Reference: PubChem BioAssay (NCI)
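Each compound was tested at five concentrations against cells in 96-well plates for 48 hours. At the GI50, growth is halved. TGI denotes the concentration required for complete inhibition of growth.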 Where a SMILES comes first, the peptide text is derived from it. Bridges are numbered along the chain shown (N, C = ends). [ ]: non-standard residue; d: D form. ξ: configuration not given here. ξThr(3R) = C[C@@H](O)C(N)C(=O)O; S5 = C=CCCC[C@](C)(N)C(=O)O

Columns and labels:
Experiment in all cases: NCI anticancer screen, dose series, 48 h
MDA-MB-231 breast = tested on: MDA-MB-231 breast
DU-145 prostate = tested on: DU-145 prostate
UACC-62 melanoma = tested on: UACC-62 melanoma
SR leukemia = tested on: SR leukemia
SN12C renal = tested on: SN12C renal
786-0 renal = tested on: 786-0 renal
HOP-92 NSCLC = tested on: HOP-92 NSCLC
MCF7 breast = tested on: MCF7 breast

Structure (SMILES)	GI50 (MDA-MB-231 breast)	TGI (MDA-MB-231 breast)	GI50 (DU-145 prostate)	TGI (DU-145 prostate)	GI50 (UACC-62 melanoma)	TGI (UACC-62 melanoma)	GI50 (SR leukemia)	TGI (SR leukemia)	GI50 (SN12C renal)	TGI (SN12C renal)	GI50 (786-0 renal)	TGI (786-0 renal)	GI50 (HOP-92 NSCLC)	TGI (HOP-92 NSCLC)	GI50 (MCF7 breast)	TGI (MCF7 breast)
C=C1C(=O)O[C@H]2[C@H]1CC/C(Cn1cc(-c3cccc(Cl)c3)nn1)=C\CC[C@@]1(C)O[C@@H]21	1.09 µM	2.91 µM	1 µM	2.16 µM	0.625 µM	2.08 µM	0.231 µM	0.886 µM	1.4 µM	3.35 µM	0.506 µM	1.87 µM	0.257 µM	0.842 µM	–	–
CC(C)(C)NC(=O)[C@H]1CC[C@H]2[C@@H]3CC[C@H]4NC(=O)C=C[C@]4(C)[C@H]3CC[C@]12C	> 100 µM	> 100 µM	> 100 µM	> 100 µM	> 100 µM	> 100 µM	> 100 µM	> 100 µM	> 100 µM	> 100 µM	> 100 µM	> 100 µM	30.3 µM	> 100 µM	> 100 µM	> 100 µM
NC(=O)CC1(O)C=C(Br)C(=O)C(Br)=C1	6.85 µM	20.2 µM	6.05 µM	19 µM	4.21 µM	15.8 µM	1.7 µM	14.2 µM	9.05 µM	23.4 µM	8.76 µM	> 35.7 µM	1.85 µM	4.26 µM	3.3 µM	15.3 µM
O=C(COc1ccc(OCC(=O)N2C(=O)CN(c3ccccc3)C2=S)cc1)N1C(=O)CN(c2ccccc2)C1=S	> 25 µM	> 100 µM	> 25 µM	> 100 µM	> 25 µM	> 100 µM	> 100 µM	> 100 µM	> 25 µM	> 100 µM	> 25 µM	> 100 µM	–	> 100 µM	–	> 100 µM
N#Cc1ccccc1C#C/C=C\C#CC#C/C=C\C#Cc1ccccc1C#N	8.76 µM	35.4 µM	29.3 µM	> 100 µM	14.7 µM	40.6 µM	–	–	–	–	16.6 µM	42.1 µM	10.4 µM	> 100 µM	47.4 µM	> 100 µM
COc1c(O)cc2c(c1O)C(=O)C1=C(CCCC1)C2=O	–	64.1 µM	–	74.3 µM	–	48.8 µM	–	34.2 µM	–	58.3 µM	–	49.4 µM	–	82.7 µM	–	80.7 µM
O=C(CCl)Nc1cc(Cl)c(Cl)cc1Cl	–	2.9 µM	–	7.06 µM	–	3.59 µM	–	> 10 µM	–	2.96 µM	–	2.87 µM	–	–	–	3.6 µM
NC(Cc1c[nH]c2ccc(F)cc12)C(=O)O (stereo unspecified)	600 µM	1670 µM	1310 µM	> 2500 µM	755 µM	> 2500 µM	1200 µM	> 2500 µM	918 µM	> 2500 µM	1200 µM	> 2500 µM	–	> 2500 µM	911 µM	> 2500 µM
Clc1ccc2ncc(-c3cccc(NC4CNC4)n3)n2c1	6.48 µM	75.1 µM	4.58 µM	> 100 µM	10.2 µM	27.3 µM	1.97 µM	> 100 µM	1.58 µM	> 100 µM	7.96 µM	> 100 µM	20.5 µM	67.7 µM	4.64 µM	52.3 µM
COc1cccc2nc3ccccc3nc12	–	> 100 µM	–	> 100 µM	–	> 100 µM	–	> 100 µM	–	> 100 µM	–	> 100 µM	–	78.1 µM	–	> 100 µM
COc1ccc2nc(-c3ccccc3)cc(Nc3cccc(C(C)=O)c3)c2c1	9.65 µM	28.3 µM	13.2 µM	32.3 µM	15.4 µM	31.4 µM	–	–	3.96 µM	17.9 µM	2.66 µM	9.64 µM	15.2 µM	38.4 µM	7.95 µM	33.2 µM
COc1ccc(Cl)cc1Nc1nc(C(F)(F)F)ccc1C(=O)N/N=C/c1cccnc1	4.51 µM	> 100 µM	7.22 µM	> 100 µM	3.69 µM	> 100 µM	–	–	7.78 µM	> 100 µM	2.63 µM	> 100 µM	2.42 µM	28.3 µM	3.51 µM	> 100 µM
Cc1ccc(-c2nc3cc(Cl)c(Cl)cc3nc2C#N)cc1	> 100 µM	> 100 µM	> 100 µM	> 100 µM	> 100 µM	> 100 µM	–	–	> 100 µM	> 100 µM	47.5 µM	> 100 µM	40.5 µM	> 100 µM	> 100 µM	> 100 µM
O=C1C=CC(=Nc2cccc3c(N=C4C=CC(=O)O4)cccc23)O1	–	> 100 µM	–	> 100 µM	–	> 100 µM	–	48.1 µM	–	77.9 µM	–	34.5 µM	–	> 100 µM	–	> 100 µM
Nc1nnnc2nc[nH]c12	0.597 µM	> 100 µM	0.8 µM	> 100 µM	0.637 µM	2.72 µM	–	> 100 µM	2.25 µM	> 100 µM	0.96 µM	> 100 µM	0.622 µM	> 100 µM	2.58 µM	> 100 µM
C/C(=N/O)c1ccc2c(c1)/C(=N/O)c1ccccc1-2	23 µM	56.5 µM	26.4 µM	71 µM	18.3 µM	37.5 µM	12.5 µM	31.8 µM	19.8 µM	44.5 µM	20.5 µM	38.5 µM	27.8 µM	60 µM	15.3 µM	35.8 µM

Structure (SMILES)	GI50 (MDA-MB-231 breast)	TGI (MDA-MB-231 breast)	GI50 (DU-145 prostate)	TGI (DU-145 prostate)	GI50 (UACC-62 melanoma)	TGI (UACC-62 melanoma)	GI50 (SR leukemia)	TGI (SR leukemia)	GI50 (SN12C renal)	TGI (SN12C renal)	GI50 (786-0 renal)	TGI (786-0 renal)	GI50 (HOP-92 NSCLC)	TGI (HOP-92 NSCLC)	GI50 (MCF7 breast)	TGI (MCF7 breast)
Cc1ccc(NC(=O)Nc2c(Cl)cccc2Cl)cn1	7.66 µM	> 100 µM	16.2 µM	76.6 µM	5.76 µM	> 100 µM	3.89 µM	22.7 µM	55.4 µM	> 100 µM	61.2 µM	> 100 µM	16.8 µM	> 100 µM	7.29 µM	> 100 µM
CCN(CC)CCN1C(=O)C2C3C(=O)CC(C)(CC3C)C2C1=O (stereo unspecified)	> 100 µM	> 100 µM	> 100 µM	> 100 µM	> 100 µM	> 100 µM	> 100 µM	> 100 µM	> 100 µM	> 100 µM	> 100 µM	> 100 µM	> 100 µM	> 100 µM	–	–
NC1=NC(=O)/C(=C/c2ccc3ncccc3c2)S1	> 25 µM	> 25 µM	> 25 µM	> 25 µM	> 25 µM	> 25 µM	7.11 µM	> 25 µM	> 25 µM	> 25 µM	> 25 µM	> 25 µM	> 25 µM	> 25 µM	> 12.2 µM	> 25 µM
COC1=C(OC)C(=O)C(Sc2ccc3ccccc3c2)=CC1=O	–	32.9 µM	–	33.7 µM	–	20.5 µM	–	7.95 µM	–	26.5 µM	–	16.3 µM	–	45.6 µM	–	43.9 µM
COc1cccc(C2=C(c3cn(C)c4cc(F)ccc34)C(=O)NC2=O)c1	> 25 µM	> 25 µM	> 25 µM	> 25 µM	14.3 µM	> 25 µM	6.72 µM	> 25 µM	> 21.5 µM	> 25 µM	> 18.7 µM	> 25 µM	> 25 µM	> 25 µM	7.56 µM	> 25 µM
CC(c1ccccc1)[C@@H](C(=O)Nc1ccc(I)cc1F)N1C(=O)N[C@H](c2ccc(OC[C@H](O)CO)cc2)C1=O (stereo partly specified)	1.56 µM	> 25 µM	15.3 µM	> 25 µM	0.0551 µM	2.25 µM	> 20.5 µM	> 25 µM	6.14 µM	> 25 µM	> 14.4 µM	> 25 µM	0.552 µM	7.03 µM	> 15 µM	> 25 µM
CN(C)C=NC1CCC(C(C)(C)C)CC1 (stereo unspecified)	–	26.7 µM	–	61.3 µM	–	33.8 µM	–	–	–	34.6 µM	–	33.3 µM	–	34.6 µM	–	> 100 µM
CC[C@]1(O)CC2CN(CCc3c([nH]c4ccccc34)[C@@](C(=O)OC)(c3cc4c(cc3OC)N(C=O)[C@H]3[C@@](O)(C(=O)OC)[C@H](OC(C)=O)[C@]5(CC)C=CCN6CC[C@]43[C@@H]65)C2)C1 (stereo partly specified)	< 0.005 µM	2.73 µM	< 0.005 µM	–	< 0.005 µM	> 50 µM	< 0.005 µM	> 50 µM	< 0.005 µM	> 50 µM	0.014 µM	> 22.5 µM	–	> 50 µM	< 0.005 µM	> 50 µM
CCCCCCCCCC(CCCC(O)CC(=O)O)OC1OC(COC2OC(C)C(OC(C)=O)C(O)C2O)C(O)C(O)C1OC1OC(CO)C(O)C(O)C1OC1OC(C)C(OC(=O)CC(C)C)C(O)C1O (stereo unspecified)	> 35 µM	> 35 µM	> 35 µM	> 35 µM	> 35 µM	> 35 µM	> 35 µM	> 35 µM	> 35 µM	> 35 µM	> 35 µM	> 35 µM	–	–	> 35 µM	> 35 µM
COc1ccc(C(=O)O[C@H]2[C@H](O[C@H]3[C@@H](O)COC(O[C@H]4C[C@H]5[C@@H]6CC=C7C[C@@H](O)CC[C@]7(C)[C@H]6CC[C@]5(C)[C@H]4[C@H](C)C(=O)CCC(C)C)[C@@H]3OC(C)=O)OC[C@@H](O)[C@@H]2O)c(C)c1 (stereo partly specified)	0.146 µM	18.1 µM	1.26 µM	36.4 µM	< 0.01 µM	< 0.01 µM	< 0.01 µM	> 100 µM	11.7 µM	29.7 µM	< 0.01 µM	7.38 µM	< 0.01 µM	0.0866 µM	< 0.01 µM	11 µM
CCCCCCCCCCCCCCCCCCOc1ccccc1CC(=O)OCC[N+](CC)(CC)CC	1.05 µM	2.7 µM	2.07 µM	7.99 µM	1.16 µM	3.37 µM	–	–	1.3 µM	5.68 µM	1.64 µM	7.54 µM	1.1 µM	3.52 µM	1.35 µM	5.25 µM
CCN(CC)c1ccc2nc3c4ccccc4c(=O)cc-3n(-c3ccccc3)c2c1	2.22 µM	8.2 µM	2.66 µM	9.75 µM	1.36 µM	4.31 µM	–	–	2.72 µM	40.2 µM	2.66 µM	8.86 µM	1.24 µM	4.78 µM	0.53 µM	7.83 µM
CCCCCC[C@@H](C)Nc1nc2ccccc2c2occc12	10.8 µM	22.7 µM	9.79 µM	21.5 µM	13.2 µM	25.9 µM	–	–	12.8 µM	25.4 µM	14.3 µM	27.8 µM	11.2 µM	27.2 µM	10.5 µM	> 100 µM
COc1cccc(/C=C/c2ccnc3ccccc23)c1OC	–	> 10 µM	–	> 10 µM	–	> 10 µM	–	–	–	> 10 µM	–	> 10 µM	–	> 10 µM	–	> 10 µM
O=C1c2ccccc2C(=O)c2c1ccc1c(=O)n(-c3ccccc3C(F)(F)F)nnc21	2.07 µM	7.04 µM	3.19 µM	> 100 µM	1.52 µM	3.21 µM	–	–	2.23 µM	28.9 µM	4.09 µM	> 100 µM	2.08 µM	5.94 µM	1.86 µM	4.64 µM
CC(=O)N[C@H](C(=O)N[C@@H](CCCNC(=N)N)C(=O)N[C@@H](CCCCN)C(=O)N[C@@H](CCCNC(=N)N)C(=O)NC(C(=O)N[C@@H](CC(C)C)C(=O)N[C@@H](CCCNC(=N)N)C(=O)N[C@@]1(C)CCC/C=C\CCC[C@@](C)(C(=O)N[C@@H](CCCNC(=N)N)C(=O)N[C@@H](CCC(=O)O)C(=O)N[C@@H](CC(C)C)C(=O)N[C@H](C(=O)N[C@@H](CCC(=O)O)C(N)=O)C(C)C)NC(=O)[C@H](CCC(N)=O)NC(=O)[C@H](CC(C)C)NC(=O)[C@H](CC(C)C)NC1=O)[C@@H](C)O)C(C)C (stereo partly drawn) (Ac-VRKR[ξThr(3R)]LR[S5]LLQ[S5]RELVE-NH2; staple (Z) 8-12)	8.24 µM	17.1 µM	2.68 µM	9.2 µM	1.13 µM	2.81 µM	–	–	3.33 µM	10.7 µM	4.2 µM	12.6 µM	2.45 µM	8.89 µM	3.41 µM	11.7 µM
